Results on 1 compound are retold here after patent US20170340690A1, “METHOD FOR IMPROVING INTESTINAL HEALTH USING EXTRACTS OF CODONOPSIS LANCEOLATA” (KOREA INSTITUTE OF SCIENCE AND TECHNOLOGY, priority 2016, published 2017).

For test [1], the system named is intestinal microorganisms. The test is described as follows: Measurement of growth of intestinal microorganisms (absorbance at 600 nm). The format is cell-based, human. The conditions noted are these: normal medium condition (FIG. 1), 37° C., 48 hours, extract 100 μg/mL, FOS 1 mg/mL, chloramphenicol 10 or 40 μg/mL.
In test [2] the test system is intestinal microorganisms. The test is described as follows: Gas chromatographic analysis of content of short-chain fatty acids in culture medium of intestinal microorganisms. The conditions noted are these: 48 hours, extract 100 μg/mL, FOS 1 mg/mL, chloramphenicol 10 or 40 μg/mL; for Content (mM) of short-chain fatty acids: non-treated control 18.6 mM. It is filed as cell-based, human. The protocol: The analysis sample was subjected to centrifugation of the 96-well plate at 3500 rpm for 10 minutes. 400 μL of the obtained supernatant was stabilized by adding 20 μL of 50% sulfuric acid and then 40 μL of an internal standard (1% 2-methylpentanoic acid) was added. Then, after adding 400 μL of ethyl ether, the mixture was mixed for about 2 minutes by vortexing. The sample was centrifuged and the top ethyl ether layer was recovered and subjected to GC analysis. The analysis was performed using Bruker 450-GC and the Supelco's Nukol Fused silica capillary column ([…]×0.25 mm×0.25 μm). The analysis condition is described in Table 4.

The next test deals with β-glucuronidase. Particulars: enzymatic activity divided by OD600; 37° C., 48 hours anaerobic culture; extract 100 μg/mL, FOS 1 mg/mL, chloramphenicol 10 or 40 μg/mL (FIG. 3).
The test system of a further test is tryptophanase. The conditions noted are these: enzymatic activity divided by OD600; 37° C., 48 hours anaerobic culture; extract 100 μg/mL, FOS 1 mg/mL, chloramphenicol 10 or 40 μg/mL (FIG. 4).

Description for tryptophanase: In order to quickly evaluate the effect of the candidate materials on improvement of intestinal microflora, culturing was performed using a 96-well plate. 10 μL of the culture medium of intestinal microorganisms maintained stably through anaerobic continuous culturing was inoculated to 1 mL of a medium for investigation described in Table 3. Culturing was performed at 37° C. for 48 hours by treating an extract of Codonopsis lanceolata for evaluating the effect of improving intestinal microflora at a concentration of 100 μg/mL (0.2% DMSO). […] At the same time, chloramphenicol (10 or 40 μg/mL) which is an antibiotic known to worsen intestinal microflora was used to compare the effect of improving intestinal microflora. Then, the effect of improving intestinal microflora was investigated by measuring the growth of intestinal microorganisms, the enzymatic activity of harmful bacteria, the content of short-chain fatty acids, etc. using the culture medium of microorganisms.
The culture medium of intestinal microorganisms incubated and maintained with a culture medium in a fermenter under an anaerobic condition. […] The supernatant was taken and absorbance was measured at 550 nm. Then, relative tryptophanase activity (%) was calculated by dividing the enzymatic activity by the degree of growth of intestinal microorganisms (OD600).
Description for β-glucuronidase: The samples were transfered to an anaerobic workstation within 30 minutes and treated quickly. After adding glycerol as an additive for storage at low temperature, the mixtures were stored in an ultra-low temperature freezer with 40 mL each and were used as samples for culturing of intestinal microorganisms.
Each bioreactor containing 300 mL of a medium was sterilized and maintained at an anaerobic condition by injecting nitrogen gas. Then, the sample of intestinal microorganisms prepared in Test Example 1 was inoculated. After conducting batch culturing for 24 hours, continuous culturing was performed using a medium of the same composition. Total residence time was 24 hours. Culturing temperature was maintained at 37° C. and pH was maintained at 5.5 using a 1 N hydrochloric acid solution and a 1 N sodium hydroxide solution. […] The culturing condition was maintained for at least 30 days. […]
The culture medium of intestinal microorganisms incubated and maintained with a culture medium in a fermenter under an anaerobic condition. […] The supernatant was taken and absorbance was measured at 405 nm. Then, relative β-glucuronidase activity (%) was calculated by dividing the enzymatic activity by the degree of growth of intestinal microorganisms (OD600).

As to `O=C(N[C@H](CO)[C@H](O)c1ccc([N+](=O)[O-])cc1)C(Cl)Cl` [chloramphenicol], the “growth of intestinal microorganisms” value in test [1] is on record as “decreased growth of intestinal microorganisms”. Also, in test [2], the “Composition of short-chain fatty acids (%) Acetate” value was determined as 54.36 ± 3.23%, the “Composition of short-chain fatty acids (%) Butyrate” value stood at 20.24 ± 0.64%, the “Composition of short-chain fatty acids (%) Propionate” value is 25.40 ± 0.89% and the “Content (mM) of short-chain fatty acids” value is listed as 2.03 mM. In addition, the “Content (mM) of short-chain fatty acids” value in test [2] (listed as Antibiotic (chloramphenicol)) turned out to be 2.03 ± 0.06 mM. For the same compound, in the test with β-glucuronidase, the “relative β-glucuronidase activity” value is reported as “increased β-glucuronidase activity”. Besides, the relative tryptophanase activity result in the test on tryptophanase is listed as “increased tryptophanase activity”.
